{"source": "paper PMC8766756", "about": "“Insights on Cancer Cell Inhibition, Subcellular Activities, and Kinase Profile of Phenylacetamides Pending 1H-Imidazol-5-One Variants” (Frontiers in Pharmacology, 2022)", "test_in_all_cases": "PamChip tyrosine kinase microarray", "assay_type_in_all_cases": "biochemical", "conditions_in_all_cases": "0.1 µM, HL60 lysate", "key": {"Mer (Q12866)": {"molecular_target": "T1, Mer (Q12866) (Homo sapiens, UniProt Q12866)", "T1 construct": "purchased PamGene (PamChip PTK array, Upstream Kinase Analysis)", "T1 sequence (Q12866 21-999)": "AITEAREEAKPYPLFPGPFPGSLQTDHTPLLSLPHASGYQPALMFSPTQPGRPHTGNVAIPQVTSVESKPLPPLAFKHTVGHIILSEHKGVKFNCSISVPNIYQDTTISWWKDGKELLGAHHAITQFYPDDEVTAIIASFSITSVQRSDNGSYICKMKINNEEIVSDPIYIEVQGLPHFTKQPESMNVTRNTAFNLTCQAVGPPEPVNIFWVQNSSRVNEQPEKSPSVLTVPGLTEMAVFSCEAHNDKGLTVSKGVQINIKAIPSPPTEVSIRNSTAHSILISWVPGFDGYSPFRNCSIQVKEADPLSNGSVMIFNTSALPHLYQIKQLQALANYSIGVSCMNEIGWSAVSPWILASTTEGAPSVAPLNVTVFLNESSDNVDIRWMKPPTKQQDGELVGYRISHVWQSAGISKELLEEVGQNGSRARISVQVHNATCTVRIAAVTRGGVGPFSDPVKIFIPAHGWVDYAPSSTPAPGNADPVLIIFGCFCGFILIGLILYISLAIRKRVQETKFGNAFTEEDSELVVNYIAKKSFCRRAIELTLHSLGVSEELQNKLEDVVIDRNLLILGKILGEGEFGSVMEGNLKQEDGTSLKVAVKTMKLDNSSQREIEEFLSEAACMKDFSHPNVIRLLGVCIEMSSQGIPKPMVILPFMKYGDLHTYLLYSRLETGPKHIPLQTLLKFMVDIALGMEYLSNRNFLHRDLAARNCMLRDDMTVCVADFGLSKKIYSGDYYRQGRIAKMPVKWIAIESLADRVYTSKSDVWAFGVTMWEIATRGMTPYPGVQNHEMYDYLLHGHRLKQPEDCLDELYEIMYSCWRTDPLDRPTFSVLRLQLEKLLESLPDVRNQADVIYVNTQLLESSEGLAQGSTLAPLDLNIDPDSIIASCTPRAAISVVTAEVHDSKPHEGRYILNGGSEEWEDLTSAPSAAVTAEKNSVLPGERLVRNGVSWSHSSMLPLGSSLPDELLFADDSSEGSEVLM", "experimental": "(§1) The reproducible high potency of KIM-161 on leukemia cell lines was initially speculated to encompass Src tyrosine kinase inhibition. Even so, we also suspected that KIM-161 might be affecting other tyrosine kinases because the HL60 cells are not among the most Src-dependent highly proliferative cells ([Collins, 1987]). Therefore, a profiling of the kinase activities was performed after treatment with KIM-161 using PamChip® tyrosine kinase microarray. This analysis is based on incubation of cell lysate with 3D microarray that projects peptides specific for 143 tyrosine kinases. If a kinase is modified in the cells, it will be detected by phosphorylating its specific peptide in the microarray.\n(§2) This test measured the activities of an array of tyrosine kinases of treated HL60 cells compared to the control (untreated cells) after incubation with KIM-161 for 48 h at concentrations of 0.001, 0.01, 0.1, 1.0, 10, and 50 µM. The log fold change (LFC) heat map was initially used to identify significant peptides affected at each concentration (Figure 5).\n(§3) An Upstream Kinase Tool was used to generate a putative list of kinases responsible for phosphorylating the phosphosites on the PamChip®. It is an interpretation and is highly dependent on the contents of the underlying phosphorylation databases. Kinase score (Table 2) was used for ranking kinases based on their significance and specificity in terms of the set of peptides used for the corresponding kinase. Kinase statistics indicates the overall change of the peptide set that represents a certain kinase. Kinase statistics value of <0 indicates lower kinase activity in the lysate spiked with the compound and vice versa. Table 2 lists the 20 most changed kinases within treated HL60 cell lysates by 0.1 μM KIM-161.\n(§4) Every compound had spiked into a leukemic (AML) cell line HL60 lysate at different concentrations (0.001, 0.01, 0.1, 1, 10, and 50 μM). In addition, DMSO had also spiked at a low concentration (2% v/v) to the HL60 lysate as the control. The samples were profiled on PamGene's tyrosine kinase (PTK) arrays in technical replicates, covering a total of 196 phosphorylation sites. The frozen leukemic HL60 cultured cell pellet was sent to PamGene. At PamGene, the cells were lysed in the presence of the lysis buffer and proteases inhibitor cocktail. The protein concentration was measured using the standard Bradford assay as per the PamGene SOPs. These lysates were further used for generating the PTK activity profiles. For spiking, KIM-161 was received in powder form and dissolved in DMSO at the PamGene facility, followed by storing it at −20°C in small aliquots. PamGene used its in-house bioinformatics toolbox in combination with other methods to generate the hypotheses of signaling pathways."}, "FGFR4 (P22455)": {"molecular_target": "T2, FGFR4 (P22455) (Homo sapiens, UniProt P22455)", "T2 construct": "purchased PamGene (PamChip PTK array, Upstream Kinase Analysis)", "T2 sequence (P22455 22-802)": "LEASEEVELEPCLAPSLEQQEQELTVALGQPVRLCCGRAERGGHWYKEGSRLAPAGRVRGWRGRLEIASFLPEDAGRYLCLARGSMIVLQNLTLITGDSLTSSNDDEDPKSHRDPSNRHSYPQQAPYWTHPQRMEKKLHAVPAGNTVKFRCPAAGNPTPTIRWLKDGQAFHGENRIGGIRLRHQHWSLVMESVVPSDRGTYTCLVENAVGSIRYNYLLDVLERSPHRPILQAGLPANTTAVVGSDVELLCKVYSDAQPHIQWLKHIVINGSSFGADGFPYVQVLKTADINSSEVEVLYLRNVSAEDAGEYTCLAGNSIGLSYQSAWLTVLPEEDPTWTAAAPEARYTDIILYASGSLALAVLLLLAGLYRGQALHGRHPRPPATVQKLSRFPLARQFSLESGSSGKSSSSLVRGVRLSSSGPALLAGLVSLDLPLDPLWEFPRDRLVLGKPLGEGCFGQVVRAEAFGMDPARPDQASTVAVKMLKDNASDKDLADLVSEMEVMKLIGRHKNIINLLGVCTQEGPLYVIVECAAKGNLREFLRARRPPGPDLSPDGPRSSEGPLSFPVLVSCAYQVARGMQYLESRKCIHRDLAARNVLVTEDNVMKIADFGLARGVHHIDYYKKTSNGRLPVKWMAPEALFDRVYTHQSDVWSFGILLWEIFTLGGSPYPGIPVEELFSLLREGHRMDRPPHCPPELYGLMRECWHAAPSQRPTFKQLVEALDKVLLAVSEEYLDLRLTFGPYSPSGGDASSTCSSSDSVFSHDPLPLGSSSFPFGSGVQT", "experimental": "as §1, §2, §3, §4"}, "Lyn (P07948)": {"molecular_target": "T3, Lyn (P07948) (Homo sapiens, UniProt P07948)", "T3 construct": "purchased PamGene (PamChip PTK array, Upstream Kinase Analysis)", "T3 sequence (P07948 whole entry)": "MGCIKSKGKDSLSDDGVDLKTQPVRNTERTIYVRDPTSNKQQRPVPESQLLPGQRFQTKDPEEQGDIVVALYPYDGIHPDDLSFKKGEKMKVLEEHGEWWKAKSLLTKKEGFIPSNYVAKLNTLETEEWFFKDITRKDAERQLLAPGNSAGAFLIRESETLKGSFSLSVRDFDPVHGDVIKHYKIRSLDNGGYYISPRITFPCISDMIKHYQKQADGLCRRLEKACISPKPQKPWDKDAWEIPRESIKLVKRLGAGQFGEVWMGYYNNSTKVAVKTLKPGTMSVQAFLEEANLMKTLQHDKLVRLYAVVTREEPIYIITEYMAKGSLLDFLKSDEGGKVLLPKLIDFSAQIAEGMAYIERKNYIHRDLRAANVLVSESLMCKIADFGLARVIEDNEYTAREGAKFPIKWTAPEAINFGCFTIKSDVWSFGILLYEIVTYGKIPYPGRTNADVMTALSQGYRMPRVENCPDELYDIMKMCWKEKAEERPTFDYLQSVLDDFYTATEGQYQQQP", "experimental": "as §1, §2, §3, §4"}}, "note": "Several values for one entry are separate records, joined by “and”; a condition that tells them apart may be missing. Identical values can stand only once."}
{"compound": "COc1ccc(/C=C2\\N=C(C)N(c3ccc(CC(=O)NCc4ccccc4)cc3)C2=O)cc1", "note": "[Compound 4c, (Z)-N-Benzyl-2-(4-(4-(4-methoxybenzylidene)-2-methyl-5-oxo-4,5-dihydro-1H-imidazol-1-yl)phenyl)acetamide]", "values": [{"measurement": "Mean Final score (Kinase score)", "setting": "Mer (Q12866)", "result": 2.544}, {"measurement": "Mean Kinase Statistic", "setting": "Mer (Q12866)", "result": -1.224}, {"measurement": "Mean Significance Score", "setting": "Mer (Q12866)", "result": 2.048}, {"measurement": "Mean Specificity Score", "setting": "Mer (Q12866)", "result": 0.533}, {"measurement": "Mean Significance Score", "setting": "FGFR4 (P22455)", "result": 2.023}, {"measurement": "Mean Specificity Score", "setting": "FGFR4 (P22455)", "result": 0.5516}, {"measurement": "Mean Final score (Kinase score)", "setting": "FGFR4 (P22455); listed as KIM-161", "result": "2.73 and 2.7333"}, {"measurement": "Mean Final score (Kinase score)", "setting": "Lyn (P07948)", "result": 2.229}, {"measurement": "Mean Kinase Statistic", "setting": "Lyn (P07948)", "result": -1.195}, {"measurement": "Mean Significance Score", "setting": "Lyn (P07948)", "result": 1.851}, {"measurement": "Mean Specificity Score", "setting": "Lyn (P07948)", "result": 0.3437}]}
